Laboratory results as given in patent publication US9597407B2, “Targeted antimicrobial moieties” (C3 Jian, Inc., priority 2009, dated 2017).
Entries after “also recorded” stand apart in the source; their conditions may differ.

Tested on: bacteria
Test: Binding of targeting peptides to microorganisms (Table 3)
Settings: preferably 1x PBS
[1] = peptide binding in aqueous buffers varied by peptide solubility
[2] = peptide binding in aqueous buffers that varied depending on peptide solubility
[3] = microorganism the targeting peptide binds, binding in aqueous buffers that varied with peptide solubility
[4] = microorganism bound by the targeting peptide, binding in aqueous buffers chosen by peptide solubility

1T-69 (ILSQEADRKKLF; Peptide with targeting and/or antimicrobial activity) [Peptide 1T-69]
Target(s) (microorganism bound by the targeting peptide) [1]: S. mutans; also recorded: P. aeruginosa

PF-463 (MVILVFSLIFIFTDNYLVYQSKSIKEDVMI; Peptide with targeting and/or antimicrobial activity)
Target(s) (microorganisms bound by the targeting peptide) [2]: S. epidermidis; also recorded: E. coli; also recorded: P. aeruginosa; also recorded: C. albicans; also recorded: S. pneumoniae; also recorded: E. faecalis; also recorded: M. smegmatis

1T-139 (AVAGAAVGALLGNDARSTAVGAAIGGALGAGAGELTKNK; Peptide with targeting and/or antimicrobial activity) [Peptide 1T-139]
Target(s) (microorganism bound by the targeting peptide) [1]: A. naeslundii; also recorded: S. gordonii; also recorded: S. mitis; also recorded: S. mutans; also recorded: S. oralis

1T-99 (MKAWLGQ; Peptide with targeting and/or antimicrobial activity) [Peptide 1T-99]
Target(s) (microorganism bound by the targeting peptide) [1]: S. gordonii; also recorded: S. mitis; also recorded: S. mutans; also recorded: S. oralis; also recorded: S. sanguinis

1T-287 (KGYPLPFQYRLNNH; Peptide with targeting and/or antimicrobial activity) [Peptide 1T-287]
Target(s) [3]: P. gingivalis; also recorded: T. denticola; also recorded: S. gordonii; also recorded: S. mitis; also recorded: S. mutans; also recorded: S. oralis; also recorded: S. salivarious; also recorded: S. sanguinis

PF-S023 (MAEDERRALKRRTNRGRTRTRKRITV; Peptide with targeting and/or antimicrobial activity)
Target(s) (microorganism bound by the targeting peptide) [2]: S. epidermidis and MRSA

1T-110 (LAAKTAVCVGRAFM; Peptide with targeting and/or antimicrobial activity) [Peptide 1T-110]
Target(s) (microorganism bound by the targeting peptide) [1]: A. naeslundii; also recorded: P. gingivalis; also recorded: S. epidermidis; also recorded: S. gordonii; also recorded: S. mitis; also recorded: S. mutans; also recorded: S. oralis; also recorded: S. sanguinis

PF-291 (DVDGAIESEL; Peptide with targeting and/or antimicrobial activity)
Target(s) [4]: S. mutans; also recorded: E. coli

1T-77 (EMRISRIILDFLFLRKK; Peptide with targeting and/or antimicrobial activity) [Peptide 1T-77]
Target(s) (microorganism bound by the targeting peptide) [1]: S. pneumoniae

1T-20 (PALVDLSNKEAVWAVLDDHS; Peptide with targeting and/or antimicrobial activity) [Peptide 1T-20]
Target(s) (microorganism bound by the targeting peptide) [1]: S. mutans; also recorded: P. aeruginosa

1T-159 (IFSLHHFALICSEMGTFAVSKRAKYKWEVL; Peptide with targeting and/or antimicrobial activity) [Peptide 1T-159]
Target(s) (microorganism bound by the targeting peptide) [1]: P. gingivalis

PF-333 (YMTKKLVEMAEQQMAGKSNR; Peptide with targeting and/or antimicrobial activity)
Target(s) [4]: S. mutans

PF-054 (VSISRFIGGGHVFNGNNKRNL; Peptide with targeting and/or antimicrobial activity)
Target(s) [3]: S. epidermidis; also recorded: E. coli

PF-505 (GYTKDPGTGI; Peptide with targeting and/or antimicrobial activity)
Target(s) (microorganisms bound by the targeting peptide) [2]: S. mutans

1T-291 (DMKIIKLYIKILSFLFIKYCNKKLNSVKLKA; Peptide with targeting and/or antimicrobial activity) [Peptide 1T-291]
Target(s) [3]: A. naeslundii; also recorded: F. nucleatum; also recorded: P. gingivalis; also recorded: T. denticola; also recorded: S. mitis; also recorded: S. mutans; also recorded: S. oralis

PF-720 (SLDMGK; Peptide with targeting and/or antimicrobial activity)
Target(s) (microorganism bound by the targeting peptide) [2]: S. mutans

1T-260 (NILYFIHDENQWEPQKAEIFRGSIKHCAWLSS; Peptide with targeting and/or antimicrobial activity) [Peptide 1T-260]
Target(s) [3]: A. naeslundii; also recorded: P. gingivalis; also recorded: S. epidermidis; also recorded: S. gordonii; also recorded: S. mitis; also recorded: S. mutans; also recorded: S. oralis; also recorded: S. sanguinis

1T-219 (RNINVSATFITEKSLV; Peptide with targeting and/or antimicrobial activity) [Peptide 1T-219]
Target(s) [3]: S. sanguinis

1T-83 (QKPRKNETFIGYIQRYDIDGNGYQSLPCPQN; Peptide with targeting and/or antimicrobial activity) [Peptide 1T-83]
Target(s) (microorganism bound by the targeting peptide) [1]: S. pneumoniae

PF-324 (HFSLL; Peptide with targeting and/or antimicrobial activity)
Target(s) [4]: C. difficile

PF-C068 (LNLFASI; Peptide with targeting and/or antimicrobial activity)
Target(s) (microorganism bound by the targeting peptide) [2]: A. naeslundii; also recorded: F. nucleatum; also recorded: S. mutans

1T-49 (SLVRIHDQQPWVTRGAFIDAARTCS; Peptide with targeting and/or antimicrobial activity) [Peptide 1T-49]
Target(s) (microorganism bound by the targeting peptide) [1]: S. aureus; also recorded: S. epidermidis; also recorded: C. jeikeium; also recorded: P. aeruginosa

1T-17 (NNAIVYIS; Peptide with targeting and/or antimicrobial activity) [Peptide 1T-17]
Target(s) (microorganism bound by the targeting peptide) [1]: S. mutans

PF-334 (QQYLILDRM; Peptide with targeting and/or antimicrobial activity)
Target(s) [4]: S. epidermidis; also recorded: C. difficile

PF-039 (MLEEKNKSL; Peptide with targeting and/or antimicrobial activity)
Target(s) [3]: P. mirabilis; also recorded: C. jeikeium

ASKQASKQASKQASKQASKQASRSLKNHLL [PF-523]
Target(s) (microorganisms bound by the targeting peptide) [2]: S. epidermidis; also recorded: M. luteus; also recorded: C. albicans; also recorded: S. pneumoniae; also recorded: C. jeikeium; also recorded: C. jejuni

PF-716 (HGENHHHKSDEKDNDSSEKKD; Peptide with targeting and/or antimicrobial activity)
Target(s) (microorganism bound by the targeting peptide) [2]: S. mutans

PF-510 (WYLYKKQSNQNDRGIPK; Peptide with targeting and/or antimicrobial activity)
Target(s) (microorganisms bound by the targeting peptide) [2]: S. mutans; also recorded: E. coli

PF-709 (NKKHSPMD; Peptide with targeting and/or antimicrobial activity)
Target(s) (microorganism bound by the targeting peptide) [2]: S. mutans

PF-044 (KLKKYIHKPD; Peptide with targeting and/or antimicrobial activity)
Target(s) [3]: S. epidermidis and M. luteus and MRSA and C. jeikeium

1T-199 (RAGRIKKLSQKEAEPFEN; Peptide with targeting and/or antimicrobial activity) [Peptide 1T-199]
Target(s) [3]: S. sanguinis

PF-C285 (FTIIELKKQKIKHGENNKKTAHPLNEPFCARA; Peptide with targeting and/or antimicrobial activity)
Target(s) (microorganism bound by the targeting peptide) [2]: A. naeslundii; also recorded: F. nucleatum; also recorded: P. gingivalis; also recorded: S. mutans; also recorded: T. denticola

PF-174 (RGGDSPARRRPGLAGPGGPG; Peptide with targeting and/or antimicrobial activity)
Target(s) [4]: S. epidermidis; also recorded: P. aeruginosa; also recorded: C. jeikeium

1T-37 (YIVGALVILAVAGLIYSMLRKA; Peptide with targeting and/or antimicrobial activity) [Peptide 1T-37]
Target(s) (microorganism bound by the targeting peptide) [1]: S. mutans; also recorded: S. aereus; also recorded: S. epidermidis; also recorded: C. jeikeium; also recorded: C. xerosis; also recorded: C. striatum; also recorded: P. aeruginosa

PF-060 (HSSHL; Peptide with targeting and/or antimicrobial activity)
Target(s) [3]: E. coli; also recorded: C. albicans; also recorded: C. jeikeium

TT-310 (TKLKKNNKLLSAKKENTLHTKDK; Peptide with targeting and/or antimicrobial activity)
Target(s) [3]: F. nucleatum

1T-286 (LGFFNNKADLVKADTERDNRMSSLKIKDL; Peptide with targeting and/or antimicrobial activity) [Peptide 1T-286]
Target(s) [3]: S. sanguinis

PF-050 (SYYLKRREEKGK; Peptide with targeting and/or antimicrobial activity)
Target(s) [3]: S. epidermidis; also recorded: M. luteus; also recorded: E. coli; also recorded: C. jeikeium

1T-117 (GPGVVGPAPFSRLPAHALNL; Peptide with targeting and/or antimicrobial activity) [Peptide 1T-117]
Target(s) (microorganism bound by the targeting peptide) [1]: S. mutans

PF-371 (TFIYNEF; Peptide with targeting and/or antimicrobial activity)
Target(s) [4]: S. epidermidis; also recorded: B. fragilis; also recorded: C. jejuni

TT-305 (ARNALNMRDVPVDAAIIGIIDGMDEE; Peptide with targeting and/or antimicrobial activity)
Target(s) [3]: F. nucleatum

PF-364 (LVNGIKI; Peptide with targeting and/or antimicrobial activity)
Target(s) [4]: S. epidermidis; also recorded: B. fragilis; also recorded: P. aeruginosa; also recorded: C. jeikeium; also recorded: C. jejuni

TT-306 (KILNEAEGKLLKVIEKNGEIDIEEI; Peptide with targeting and/or antimicrobial activity)
Target(s) [3]: F. nucleatum

PF-506 (SGRGFALIVVLFILLIIVGAACIR; Peptide with targeting and/or antimicrobial activity)
Target(s) (microorganisms bound by the targeting peptide) [2]: S. mutans; also recorded: E. coli

PF-265 (MKTLFFPLFLIIFVLIIQALDQSYQKKIGISKPQKHPEFMQ; Peptide with targeting and/or antimicrobial activity)
Target(s) [4]: S. epidermidis; also recorded: M. luteus; also recorded: A. baumannii
